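Protocol summary: plate cells (96-well), add compound at 5 concentrations, incubate 48 h, interpolate endpoints linearly. Here, GI50 denotes the concentration required for 50% inhibition of growth.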 Activity calls are given as the source filed them. No stated cut-off is given here; in the data, active = GI50 up to about 1.1 µM and inactive = higher.
What was measured:
Assay in all cases: growth of human tumour cells (NCI), 48 h
OVCAR-3 = tested on: OVCAR-3
HOP-92 = tested on: HOP-92
HOP-62 = tested on: HOP-62
IGROV-1 = tested on: IGROV-1
DU-145 = tested on: DU-145
ACHN = tested on: ACHN
EKVX = tested on: EKVX
OVCAR-5 = tested on: OVCAR-5
HCC 2998 = tested on: HCC 2998
UACC-257 = tested on: UACC-257
SF-539 = tested on: SF-539
SK-OV-3 = tested on: SK-OV-3
RXF 393 = tested on: RXF 393
U-251 = tested on: U-251
Hs-578T = tested on: Hs-578T
SNB-19 = tested on: SNB-19
Malme-3M = tested on: Malme-3M
MDA-MB-231 = tested on: MDA-MB-231
NCI-H522 = tested on: NCI-H522
PC-3 = tested on: PC-3

Measured: GI50

O=C(/C=C/c1ccc(O)cc1)c1ccc(O)cc1 [4,4'-DIHYDROXYCHALCONE]
inactive: OVCAR-3 22 µM | HOP-92 31.6 µM | HOP-62 21.8 µM | IGROV-1 32.1 µM | DU-145 34.2 µM | ACHN 23.9 µM | EKVX 42.3 µM | OVCAR-5 33.3 µM | HCC 2998 24 µM | UACC-257 29.5 µM | SF-539 21.1 µM | SK-OV-3 42.6 µM | RXF 393 22.9 µM | U-251 18 µM | Hs-578T 27 µM | SNB-19 32.7 µM | Malme-3M 27.7 µM | MDA-MB-231 43.7 µM | NCI-H522 3.94 µM | PC-3 28.7 µM

CCCCCC(O)(CCCCC)CCCCCCCCC1=C(O)C(=O)c2ccccc2C1=O
inactive: OVCAR-3 14.3 µM | HOP-92 14.6 µM | HOP-62 11.6 µM | IGROV-1 6.08 µM | DU-145 8.53 µM | ACHN 8.85 µM | EKVX 10.7 µM | OVCAR-5 20.5 µM | HCC 2998 16.6 µM | UACC-257 12.6 µM | SF-539 11.2 µM | SK-OV-3 15.6 µM | RXF 393 12.9 µM | U-251 7.73 µM | Hs-578T 16.1 µM | SNB-19 5.75 µM | Malme-3M 11.5 µM | MDA-MB-231 11.4 µM | NCI-H522 12.2 µM | PC-3 7.5 µM

Cc1nn(C(=O)c2ccc(Cl)cc2)c2c1C(c1ccc(Cl)cc1)SC(=N)N2 (stereo not given)
inactive: OVCAR-3 > 10 µM | HOP-92 > 10 µM | HOP-62 > 10 µM | IGROV-1 > 10 µM | DU-145 > 10 µM | ACHN > 10 µM | EKVX > 10 µM | OVCAR-5 > 10 µM | HCC 2998 > 10 µM | UACC-257 > 10 µM | SF-539 > 10 µM | SK-OV-3 > 10 µM | RXF 393 > 10 µM | U-251 > 10 µM | Hs-578T > 10 µM | SNB-19 > 10 µM | Malme-3M > 10 µM | MDA-MB-231 > 10 µM | NCI-H522 > 10 µM | PC-3 > 10 µM

COc1ccc(CNC2=Nc3ccncc3S(=O)(=O)N2c2ccccc2)cc1
inactive: OVCAR-3 82.8 µM | HOP-92 29.9 µM | HOP-62 > 100 µM | IGROV-1 39.9 µM | DU-145 45.7 µM | ACHN 34 µM | EKVX 65 µM | OVCAR-5 > 100 µM | HCC 2998 3.77 µM | UACC-257 37.4 µM | SF-539 4.74 µM | SK-OV-3 > 100 µM | RXF 393 50.7 µM | U-251 68.1 µM | Hs-578T 33.8 µM | SNB-19 > 100 µM | Malme-3M 49.9 µM | MDA-MB-231 > 100 µM | NCI-H522 34.1 µM | PC-3 53.6 µM

CCOC(=O)C(=CNc1ccc(NC2=NCC(C)S2)cc1)C(=O)OCC (stereo not given)
inactive: OVCAR-3 18.2 µM | HOP-92 30.4 µM | HOP-62 50 µM | IGROV-1 26.8 µM | DU-145 46.5 µM | ACHN 18.7 µM | EKVX 37.3 µM | OVCAR-5 > 100 µM | HCC 2998 33.4 µM | UACC-257 26.5 µM | SF-539 47.8 µM | SK-OV-3 60 µM | RXF 393 30.5 µM | U-251 26.2 µM | Hs-578T 25.5 µM | SNB-19 37.8 µM | Malme-3M 24.3 µM | MDA-MB-231 34.3 µM | NCI-H522 2.66 µM | PC-3 16.1 µM

O=C(O)c1c2c(cc3c1CC1(Cc4cc5c(cc4C1=O)CCC5)C3)CCC2 (stereo not given)
inactive: OVCAR-3 56.4 µM | HOP-92 > 100 µM | HOP-62 > 100 µM | IGROV-1 > 100 µM | DU-145 98.2 µM | ACHN 56.4 µM | EKVX 87.5 µM | OVCAR-5 > 100 µM | HCC 2998 51.9 µM | UACC-257 56.6 µM | SF-539 > 100 µM | SK-OV-3 > 100 µM | RXF 393 92.9 µM | U-251 85.9 µM | Hs-578T > 100 µM | SNB-19 > 100 µM | Malme-3M > 100 µM | MDA-MB-231 > 100 µM | NCI-H522 76.4 µM | PC-3 > 100 µM

COc1cccc(/C=N/n2c(Cc3ccc(Cl)cc3)n[nH]c2=O)c1
inactive: OVCAR-3 > 100 µM | HOP-92 23.1 µM | HOP-62 15.4 µM | IGROV-1 33.5 µM | DU-145 25.8 µM | ACHN 36.6 µM | EKVX 29.6 µM | OVCAR-5 > 78.7 µM | HCC 2998 > 100 µM | UACC-257 > 100 µM | SF-539 15.8 µM | SK-OV-3 27.7 µM | RXF 393 2 µM | U-251 22.8 µM | Hs-578T 23.4 µM | SNB-19 27.3 µM | Malme-3M 44.6 µM | MDA-MB-231 19.7 µM | NCI-H522 14.7 µM | PC-3 56.5 µM
